Patent publication US9987379B2, “Molecular probes for imaging of myelin” (Case Western Reserve University, priority 2008, dated 2018)
Entries after “also recorded” stand apart in the source; their conditions may differ.

Tests used:
[1] = tested on: myelin sheaths of the corpus callosum and cerebellum; assay: In situ CMC staining of myelin after i.v. injection; format: in vivo, mouse; settings: 25 mg/kg tail vein, 1 hr post injection, wild-type and Plp-Akt-DD mice
Description: In this experiment, 25 mg/kg of CMC was administered through i.v. injection in the tail vein of 2-month old wild-type mice and Plp-Akt-DD mice Animals were sacrificed at 1 hr after injection through heart puncture. The brains were removed and fixed in 4% PFA. The brains were then sectioned and fluorescent images were directly acquired on a Zeiss Axiovert 200M inverted microscope (2.5× objective) with a AxioCam digital camera (Carl Zeiss Microlmagibg, Inc, Thornwood, N.Y.).
Following our in vitro studies, we investigated the ability of CMC to monitor myelin contents ex vivo in the mouse brain. A dose of 0.5 mg CMC (25 mg/kg) was injected via the tail vein into wild-type mice and Plp-Akt-DD mice. One hr postinjection, mice were perfused and brains were removed and sectioned as described above. CMC staining of myelin was then directly examined under fluorescent microscopy.

Log P of CMC = format: physicochemical; settings: method not stated
[2] = tested on: myelin in corpus callosum; assay: In vitro CMC tissue staining of mouse brain sections (wild-type and Plp-Akt-DD); format: binding
Description: Free floating sections were incubated in 1% H2O2/Triton-100 for 10 min, then incubated in a solution of test compounds (100 μM) in 1% DMSO/PBS for 30 min at room temperature. The sections were washed three times with PBS before cover-slipping with fluorescence mounting medium (Vectashield, Vector laboratories). […] The fluorescent nature of these coumarin derivatives allows for staining of mouse brain tissue sections in a way similar to other conventional myelin stains. The tissue staining represents a direct approach to evaluate the binding specificity of the test compounds for myelin sheaths. The myelinated corpus callosum region was then examined by fluorescent microscopy. […] For correlation, the MBP immunostaining was also conducted in adjacent sections (FIG. 10E).

[3] = Octanol-water partition coefficient measurement; format: physicochemical
Source text: The partition coefficient (PC) is an important parameter of brain permeability. PC values ranging 1.0˜3.5 often show good initial brain entry following i.v. injection (Wu, C.; Pike, V. W.; Wang, Y. Amyloid imaging: from benchtop to bedside. Curr Top Dev Biol 2005, 70, 171-213; Levin, V. A. Relationship of octanol/water partition coefficient and molecular weight to rat brain capillary permeability. J Med Chem 1980, 23, 682-684; Dishino, D. D.; Welch, M. J.; Kilbourn, M. R.; Raichle, M. E. Relationship between lipophilicity and brain extraction of C-11-labeled radiopharmaceuticals. J Nucl Med 1983, 24, 1030-1038. For this reason, we radioiodinated Compound 9 and quantitatively determined the lipophilicity of [^125I]9. Based on the conventional octanol-water partition measurement, the log Poct of [^125I]9 was determined as 2.5±0.1, which falls in the range for optimal brain entry.
Partition coefficients (PC) were measured by mixing the radioligands with 3 g (3.65 mL) 1-octanol and 3 g (3.0 mL) buffer (pH 7.40, 0.1 M phosphate) in a test tube. The test tube was vortexed for 3 mM at room temperature and then centrifuged (3500 rpm, 5 mM) 1 ml of samples from the 1-octanol and buffer layers were assayed for radioactivity content in a well γcounter. The partition coefficient was determined by calculating the ratio of cpm/g of 1-octanol to that of the buffer. […]

[4] = Brain uptake / permeability across the blood-brain barrier in mice; format: in vivo, mouse
Description: Encouraged by the aforementioned studies, we further evaluated the permeability of [^125I]9 across the blood brain barrier. Following bolus tail vein injection of [^125I]9 (0.2 ml, 0.185 MBq), the radioactivity concentration of [^125I]9 in the brain was determined at 2, 30, and 60 min post injection. […] The initial brain entry was 2.29±0.66% ID/g at 2 min post injection. At 30 min post injection, the brain radioactivity concentration reached its peak level (2.65±0.27% ID/g). […] Retention of [^125I]9 at later time points was likely due to binding to myelin membranes as indicated by aforementioned in vitro and in situ staining studies.
While under anesthesia, 0.1 mL of a saline solution (consisting of saline (2 mL, 9 mg/mL), propylene glycol (2 mL), ethanol (0.7 mL) and HCl (0.3 mL, […]))^25 containing 5 μCi of radioactive tracer, was injected into the tail veins of mice (Swiss-Webster, 2 month old, 2 mice per group). The mice were sacrificed by heart puncture at 2 mM, 30 mM, 60 min and 120 mM post injection under anesthesia. Brains were rapidly removed and weighed, and the brain uptake was expressed as percentage of injection dose per gram organ (% ID/g), which was calculated by a ratio of per gram tissue counts to counts of 1% of the initial dose (100 times diluted aliquots of the injected radioligand) measured at the same time.

[5] = tested on: myelinated corpus callosum and cerebellum; assay: In vitro autoradiography of mouse brain sections; format: binding; settings: sagittal mouse brain sections, 1 hr incubation
Description: To further evaluate the binding specificity of [^125I]9 to myelin sheaths in the brain, in vitro autoradiography was carried out in mice.
Mouse brain sections were incubated in [^125I]9 (20% Ethanol, 4,380,000 cpm/16 ml) for 1 hr. The slides were quickly washed with PBS buffer (10 mM, pH 7.0) 3 times, saturated Li2CO3 in 40% ethanol (2×3 mM), 40% ethanol (2 mM) and H2O (30 sec). After drying by air, the slides were put in a cassette and exposed to film for 44 hrs to obtain images.

[6] = Stability of [125I]9 monitored by HPLC; format: physicochemical
Source text: The radiochemical identity of [^125I]9 was verified by co-injection with cold standard Compound 9. Following HPLC purification, [^125I]9 was obtained in 70% radiochemical yield with a radiochemical purity of >98% and a specific activity of 80 TBq/mmol As monitored by HPLC, [^125I]9 was found stable to be kept at room temperature for up to 8 hrs and in the refrigerator for up to 2 months.

| Structure (SMILES) | brain entry and in situ labeling of myelin [1] | logP (Log P of CMC) | staining contrast among the coumarin derivatives screened ([2]; 100 uM, mouse brain sections) | in vitro staining of myelin ([2]; 100 uM, wild-type mouse brain sections) | fluorescent intensity in Plp-Akt-DD mouse brain relative to wild-type mouse brain ([2]; corpus callosum, hypermyelinated Plp-Akt-DD vs wild-type) [fold] | log Poct [3] | brain radioactivity concentration ([4]; 2 min post tail vein injection) [% ID/g] | brain radioactivity concentration ([4]; 30 min post tail vein injection) [% ID/g] | brain radioactivity concentration ([4]; 60 min post tail vein injection) [% ID/g] | brain radioactivity concentration ([4]; 120 min post tail vein injection) [% ID/g] | autoradiographic labeling of brain sections [5] | time found stable in the refrigerator ([6]; in the refrigerator) | time found stable at room temperature ([6]; room temperature) |
| --- | --- | --- | --- | --- | --- | --- | --- | --- | --- | --- | --- | --- | --- |
| Nc1ccc(-c2cc3ccccc3oc2=O)cc1 [CMC, 3-(4-aminophenyl)-2H-chromen-2-one] | highly permeable across the BBB and selectively localizes in myelinated regions; also recorded: entered the brain and selectively labeled myelin sheaths of the corpus callosum and cerebellum | 2.68 | highest contrast | selectively stained intact myelin tracks | 1.27 |  |  |  |  |  |  |  |  |
| Nc1ccc(C=Cc2ccc([125I])cc2)cc1 [[^125I]9, 4-[2-(4-[^125I]Iodo-phenyl)-vinyl]-phenylamine] |  |  |  |  |  | 2.5±0.1 | 2.29±0.66 | 2.65±0.27 | 2.05 ± 0.13 | 1.12±0.23 | distinct labeling of myelinated regions | up to 2 months | up to 8 hrs |
